The results in this text go back to ChEMBL document CHEMBL5728675, “5-alkyl pyrrolidine orexin receptor agonists” (2021).

The structures appear in SMILES notation. pIC50: −log10 of the molar value.

The test concerns the target T1, Orexin receptor type 2 (Homo sapiens, UniProt O43614).
T1 sequence (O43614 whole entry): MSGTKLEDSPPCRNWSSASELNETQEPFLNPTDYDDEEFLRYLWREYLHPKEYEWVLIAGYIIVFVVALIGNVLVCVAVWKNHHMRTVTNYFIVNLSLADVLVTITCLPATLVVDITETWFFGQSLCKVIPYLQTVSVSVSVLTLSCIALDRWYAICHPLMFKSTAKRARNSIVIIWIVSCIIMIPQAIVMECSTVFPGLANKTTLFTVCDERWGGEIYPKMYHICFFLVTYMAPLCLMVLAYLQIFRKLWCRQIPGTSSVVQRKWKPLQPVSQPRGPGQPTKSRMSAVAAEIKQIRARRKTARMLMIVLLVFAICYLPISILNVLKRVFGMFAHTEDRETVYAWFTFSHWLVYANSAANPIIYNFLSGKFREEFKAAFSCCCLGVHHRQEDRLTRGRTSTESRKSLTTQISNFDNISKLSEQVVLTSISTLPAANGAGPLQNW
In words: Receptor Activity Assay: In a typical experiment, the OX1 and OX2 receptor agonist activity is determined in accordance with the following general experimental method.
Turning to `COC(=O)N1[C@H](C)C[C@H](NS(=O)(=O)N(C)CC#N)[C@@H]1CO[C@H]1CC[C@@H](c2cccc(F)c2)CC1`, the pIC50 is 9.22.
Molecule `COC(=O)N1[C@H](C)C[C@H](NS(C)(=O)=O)[C@@H]1CO[C@H]1CC[C@@H](c2c(F)ccc(F)c2F)CC1` showed a pIC50 of 8.97.
Molecule `CC[C@@H]1C[C@H](NS(C)(=O)=O)[C@H](CO[C@H]2CC[C@@H](c3ccccc3)CC2)N1C(=O)OC` showed a pIC50 of 8.52.
The same measure for `COC(=O)N1[C@H](C)C[C@H](NS(=O)(=O)N(C)C)[C@@H]1CO[C@H]1CC[C@@H](c2cc(F)ccc2F)CC1`: 9.33; for `COC(=O)N1[C@H](C)C[C@H](NS(C)(=O)=O)[C@@H]1CO[C@H]1CC[C@@H](c2ccccc2C(F)(F)F)CC1`: 8.17; for `COC(=O)N1C(C2CC2)C[C@H](NS(C)(=O)=O)C1COC1CCC(c2ccccc2)CC1` (stereo partly specified): 7.13.
Regarding `COC(=O)N1[C@H](C)C[C@H](NS(=O)(=O)N(C)C)[C@@H]1CO[C@H]1CC[C@@H](c2ccccc2F)CC1`, the pIC50 is 9.04. Against the preceding molecule, the pIC50 is 1.91 log units higher.
With `COC(=O)N1[C@H](C)C[C@H](NS(=O)(=O)CF)[C@@H]1COC1CCC(c2cccc(F)c2)CC1` (stereo partly specified) the figure was 8.85; with `C=C[C@@H]1C[C@H](NS(C)(=O)=O)[C@H](CO[C@H]2CC[C@@H](c3ccccc3)CC2)N1C(=O)OC` (relative stereo), 8.03; with `COC(=O)N1[C@H](C)C[C@H](NS(C)(=O)=O)[C@@H]1CO[C@H]1CC[C@@H](C(C)C)CC1`, 7.75.
The molecule `C[C@@H]1C[C@H](NS(=O)(=O)N(C)C)[C@H](CO[C@H]2CC[C@@H](c3cc(F)ccc3F)CC2)N1C(=O)OCC(F)F` gave a pIC50 of 9.18.
As to `COC(=O)N1[C@H](C)C[C@H](NS(=O)(=O)CF)[C@@H]1CO[C@H]1CC[C@@H](c2ccccc2)CC1`, the pIC50 is 9.03. The pIC50 values of the last two molecules are within 0.2 log units of each other.
`COC(=O)N1[C@H](C)C[C@H](NS(=O)(=O)N(C)C)[C@@H]1CO[C@@H]1CC[C@H](c2cccc(F)c2)CC1F` (stereo partly specified): the pIC50 was 8.44.
Regarding `CCc1ccccc1[C@H]1CC[C@@H](OC[C@H]2[C@@H](NS(=O)(=O)N(C)C)C[C@@H](C)N2C(=O)OC)CC1`, the pIC50 was 8.66.
Take `COC(=O)N1[C@H](C)C[C@H](NS(C)(=O)=O)[C@@H]1CO[C@H]1CC[C@@H](c2ccc(F)c(F)c2)CC1`: the pIC50 is 7.59.
For `CC(C)OC(=O)N1[C@H](C)C[C@H](NS(=O)(=O)N(C)C)[C@@H]1COC1CCN(c2ncc(F)cn2)CC1`, the pIC50 is 8.94.
As to `COC(=O)N1[C@H](C)C[C@H](NS(=O)(=O)N(C)C)[C@@H]1CO[C@H]1CC[C@@H](c2ccc(C#N)c(C)c2)CC1`, the pIC50 is 8.96. This pIC50 and that of the molecule before are within 0.2 log units of each other.
`COC(=O)N1[C@H](C)C[C@H](NS(=O)(=O)CC(F)F)[C@@H]1CO[C@H]1CC[C@@H](c2cccc(F)c2)CC1`: the pIC50 was 8.28.
`COC[C@@H]1C[C@H](NS(=O)(=O)N(C)C)[C@H](CO[C@H]2CC[C@@H](c3cccc(F)c3)CC2)N1C(=O)OC` had a negative logarithm of the IC50 (pIC50) of 9.15. This pIC50 is 0.87 log units higher than that of the molecule before.
In turn, `CC[C@H]1C[C@@H](NS(C)(=O)=O)[C@@H](CO[C@H]2CC[C@@H](c3ccccc3)CC2)N1C(=O)OC` showed a pIC50 of 5.13.
`COC(=O)N1[C@H](C)C[C@H](NS(=O)(=O)N(C)C)[C@@H]1CO[C@H]1CC[C@H](c2ccc(C#N)c(C)c2)CC1` showed a pIC50 of 7.90.
In turn, `CCc1ccccc1[C@H]1CC[C@H](OC[C@H]2[C@@H](NS(=O)(=O)N(C)C)C[C@@H](C)N2C(=O)OC)CC1` showed a pIC50 of 6.95.
With `COCCS(=O)(=O)N[C@H]1C[C@@H](C)N(C(=O)OC)[C@H]1COC1CCC(c2cccc(F)c2)CC1` (stereo partly specified) the figure was 8.34.
`COC(=O)N1[C@H](C)C[C@H](NS(C)(=O)=O)[C@@H]1CO[C@H]1CC[C@@H](c2cc(F)ccc2F)CC1` showed a pIC50 of 8.78.
`COC(=O)N1[C@H](C)C[C@H](NS(=O)(=O)N(C)C)[C@@H]1CO[C@H]1CC[C@@H](c2cc(F)cc(F)c2)CC1` gave a pIC50 of 9.28.
The molecule `COC(=O)N1[C@H](C)C[C@H](NS(=O)(=O)N(C)C)[C@@H]1CO[C@@H]1CC[C@H](c2ccccc2)CC1F` (stereo partly specified) had a pIC50 of 7.97.

By pIC50 is commonly meant the negative decadic logarithm of the IC50, by convention in mol/L. Read a high pIC50 as a low IC50.
